Patent US5132323A, “1,2-diaminocyclohexane-platinum complexes with antitumor activity” (Board of Regents, The University of Texas System, priority 1990, dated 1992)

Experiments:
[1] = system: wild-type L1210 leukemic cells; experiment: In vitro cytotoxicity, growth inhibition of wild-type L1210 leukemic cells; format: cell-based, murine; conditions: 72 hours incubation
Experimental: Wild-type L1210 leukemic cells were grown as a suspension culture in McCoy's 5A medium supplemented with 10% horse serum, glutamine, streptomycin and penicillin at 37° C., 95% relative humidity and 5% CO2. Four ml of cell suspension (10^5 cells/ml) were added to culture tubes and the appropriate amount of drug was added (to yield 0.01, 0.1, 1 or 10 μg/ml final concentration) to the culture tubes. After 72 hours of incubation, the cell concentration in control and experimental cultures were determined with the aid of the Coulter counter model ZBf and the percent of growth inhibition calculated.

L1210 = experiment: In vivo antitumor therapy against L1210; design: species or system BDF1 mice; conditions: for Long-term Survivors: alive 30 days after tumor inoculation
L1210/cisplatin = experiment: In vivo antitumor efficacy, L1210/cisplatin; design: species or system BDF1 mice; conditions: for % T/C: days 1, 5, 9; for % T/C (mean survival time treated/control × 100): mice inoculated with L1210 cells (Table 6)
Experimental: (§1) BDF1 mice were inoculated intraperitoneally with 10^5 L121O cells, 0.5 ml of 10% tumor brei or 10^6 M5076 cells using 5 animals in each group. Drug was administered […] on days 1, 5 and 9, except that the group infected with M5076 cells was also injected on day 13. % T/C represents mean survival time treated/mean survival time of the control times 100.
^a BDF1 mice were inoculated i.p. with 10^5 L1210 cells. Mic
received 3 i.p. drug injections days 1, 5, and 9.
(§2) ^d % T/C = (Mean Survival Time treated/Mean Survival Time control)
(§3) ^e LTS animals alive 60 days after inoculation of L1210/0 and B16 and […]

[2] = LD50 of DACH-Pt(II) compounds, intraperitoneal; format: in vivo; conditions: i.p., CD1 albino mice
[3] = In vivo renal and hematological toxicity of DACH-Pt(II) compounds; design: species or system CD1 albino mice; WBC d.5: unit not given here; conditions: single i.p. LD50 dose; for Body Weight d.5 (% of day 0) / WBC d.5: day 5; for WBC d.5: mean ± S.D.
Experimental: CD1 albino mice were administered a single intraperitoneal injection of the LD50 dose of each compound using 5 mice in each group. Five days later each mouse was bled under anesthesia from the axillary vessel. Blood urea nitrogen (BUN) and leucopenia were assessed for each sample.
^a CD1 Albino mice were administered a single i.p. injection of
the LD50 dose of each compound (5 mice/cmpd) and bled under
anesthesia from the axillary vessel 5 days later for blood urea nitrogen
(BUN) measurement and assessment of leucopenia. Results as presented as […]

B16 melanoma = experiment: In vivo antitumor efficacy, B16 melanoma; design: species or system BDF1 mice; conditions: for % T/C (mean survival time treated/control x 100): mice inoculated with B16 cells (Table 6); for % T/C: days 1, 5, 9
Experimental: as §1, §2, §3

M5076 = experiment: In vivo antitumor efficacy, M5076; design: species or system BDF1 mice; conditions: for % T/C (treated/control mean survival time): mice inoculated with M5076 cells (Table 6); for % T/C: days 1, 5, 9, 13; for LTS: alive 90 days after inoculation; for long term survivor: M5076 inoculation (Table 6)
Experimental: as §1
^c BDF1 mice were inoculated i.p. with 10^6 M5076 cells. Mic
received 4 i.p. drug injections on days 1, 5, 9 and 13.
as §2
^e LTS animals alive 60 days after inoculation of L1210/0 and B16 and
90 days after inoculation B5076.

[4] = optimal dose 6.25 mg/kg i.p., days 1,5,9
[5] = optimal dose 25 mg/kg i.p., days 1,5,9
[6] = optimal dose 50 mg/kg i.p., day 1
[7] = optimal dose 12.5 mg/kg i.p., days 1,5,9
[8] = optimal dose 12.5 mg/kg i.p., days 1-9

## CN(C)CC(=O)[O-].CN(C)CC(=O)[O-].N[C@@H]1CCCC[C@H]1N.O.O.[Pt+2] (stereo in doubt) [Compound 16, Cis-bis-N,N-dimethylglycinato(trans-R,R-DACH)Pt(II).2H2 O]
[1]
  ID50: 3.5 mg/L

## CCC(C)N(CC(=O)[O-])CC(=O)[O-].N[C@@H]1CCCC[C@H]1N.O.O.[Pt+2] (stereo not drawn) [Compound 7, N-sec-butyliminodiacetato(trans-R,R-DACH)Pt(II).2H2 O]
[1]
  ID50: 0.65 mg/L
L1210; 6.25 mg/kg i.p., days 1,5,9
  Long-term Survivors: 2/6
L1210; [4]
  % T/C: 282%

## CCCN(CC(=O)[O-])CC(=O)[O-].N[C@@H]1CCCC[C@H]1N.O.O.[Pt+2] [Compound 2, N-propyliminodiacetato(trans-R,R-DACH)Pt(II).2H2 O]
[1]
  ID50: 0.75 mg/L
L1210; optimal dose 56 mg/kg i.p., day 1
  % T/C: 129%

## CCN1CC(=O)[O][Pt]2([NH]C3CCCCC3[NH]2)[O]C(=O)C1 (stereo not shown) [S,S-EIDA]
L1210/cisplatin; opt. dose 25 mg/kg i.p.
  % T/C: 344%
[2]
  LD50: 95 mg/kg
[3]
  Survivors on d.5: 5/5
  Body Weight d.5 (% of day 0): 100 % of day 0
  WBC d.5: 2.63 ± 0.96

## N[C@@H]1CCCC[C@H]1N.O.O.O=C([O-])CN(O)CC(=O)[O-].[Pt+2] (stereo in doubt) [Compound 9, N-hydroxyliminodiacetato(trans-R,R-DACH)Pt(II).2H2 O]
[1]
  ID50: 0.76 mg/L
L1210; [5]
  % T/C: 265%
L1210; [6]
  % T/C: 156%

## CC(C)(C)N(CC(=O)[O-])CC(=O)[O-].N[C@@H]1CCCC[C@H]1N.O.O.O.[Pt+2] [Compound 8, N-ter-butyliminodiacetato(trans-R,R-DACH)Pt(II).3H2 O]
L1210; 6.25 mg/kg i.p., days 1,5,9
  Long-term Survivors: 1/6
L1210; [4]
  % T/C: 271%

## Cis-bis-galacturonato(trans-R,R-DACH)Pt(II).2H2 O [Compound 15]
[1]
  ID50: 0.90 mg/L
L1210; [7]
  % T/C: 238%

## N-isopropyliminodiacetato(trans-R,R-DACH)Pt(II).2H2 O [Compound 5]
[1]
  ID50: 0.85 mg/L
L1210; 12.5 mg/kg i.p., days 1,5,9
  Long-term Survivors: 1/6
L1210; [7]
  % T/C: 324%
L1210; [6]
  % T/C: 155%

## N[C@H]1CCCC[C@@H]1N.O.O.O=C([O-])C1(C(=O)[O-])CCC1.[Pt+2] (stereo in doubt) [Compound 12, 1,1-Cyclobutanedicarboxylato(trans-S,S-DACH)Pt(II).2H2 O]
[1]
  ID50: 1.65 mg/L
L1210/cisplatin
  % T/C (mean survival time treated/control × 100): 176%
L1210/cisplatin; opt. dose 100 mg/kg i.p.
  % T/C: 176%
[2]
  LD50: 230 mg/kg
L1210; [8]
  % T/C: 120%
B16 melanoma
  % T/C (mean survival time treated/control x 100): 104%
B16 melanoma; opt. dose 50 mg/kg i.p.
  % T/C: 104%
M5076
  % T/C (treated/control mean survival time): 231%
M5076; opt. dose 50 mg/kg i.p.
  % T/C: 231%
  LTS: 1/5
[3]
  Survivors on d.5: 3/5
  Body Weight d.5 (% of day 0): 114 % of day 0
  WBC d.5: 3.42 ± 1.93

## N.N.O=C([O-])C1(C(=O)[O-])CCC1.[Pt+2] [Carboplatin, reference compound]
L1210/cisplatin; opt. dose 90 mg/kg i.p.
  % T/C: 121%
[2]
  LD50: 105 mg/kg
M5076; opt. dose 40 mg/kg i.p.
  % T/C: 150%
[3]
  Survivors on d.5: 5/5
  Body Weight d.5 (% of day 0): 95 % of day 0

## N[C@@H]1CCCC[C@H]1N.O.O=C([O-])C1(C(=O)[O-])CC1.[Pt+2] (stereo in doubt) [Compound 14, 1,l-Cyclopropanedicarboxylato(trans-R,R-DACH)Pt(II).H2 O]
[1]
  ID50: 0.66 mg/L

## 1,1-Cyclobutanedicarboxylato(cis-DACH)Pt(II).11/2H2 O [Compound 13]
[1]
  ID50: 3.30 mg/L
L1210/cisplatin
  % T/C (mean survival time treated/control × 100): 150%
L1210/cisplatin; opt. dose 150 mg/kg i.p.
  % T/C: 150%
[2]
  LD50: 215 mg/kg
L1210; 12.5 mg/kg i.p., days 1-9
  Long-term Survivors: 1/6
L1210; [8]
  % T/C: 253%
B16 melanoma; B16 inoculation (Table 6)
  long term survivor: 1/5
B16 melanoma
  % T/C (mean survival time treated/control x 100): 200%
B16 melanoma; opt. dose 100 mg/kg i.p.
  % T/C: 200%
B16 melanoma; opt. dose 100 mg/kg i.p., alive 60 days after inoculation
  LTS: 1/5
M5076
  long term survivor: 5/5
  % T/C (treated/control mean survival time): 400%
M5076; opt. dose 100 mg/kg i.p.
  % T/C: 400%
  LTS: 5/5
[3]
  Survivors on d.5: 5/5
  Body Weight d.5 (% of day 0): 82 % of day 0
  WBC d.5: 1.13 ± 0.28

## CCCCN(CC(=O)[O-])CC(=O)[O-].N[C@@H]1CCCC[C@H]1N.O.O.[Pt+2] [Compound 3, N-butyliminodiacetato(trans-R,R-DACH)Pt(II).2H2 O]
[1]
  ID50: 0.74 mg/L
L1210; 12.5 mg/kg i.p., days 1,5,9
  Long-term Survivors: 2/6
L1210; optimal dose 12.5 mg/kg i.p., day 1
  % T/C: 147%
L1210; [7]
  % T/C: 318%

## N.N.[Cl][Pt][Cl] [Cisplatin, reference compound]
L1210/cisplatin; opt. dose 5 mg/kg i.p.
  % T/C: 94%
B16 melanoma; opt. dose 3 mg/kg i.p.
  % T/C: 139%
M5076; opt. dose 3 mg/kg i.p.
  % T/C: 200%

## CC(C)CCN(CC(=O)[O-])CC(=O)[O-].N[C@@H]1CCCC[C@H]1N.[Pt+2] [Compound 6, N-isoamyliminodiacetato(trans-R,R-DACH)Pt(II)]
L1210; [7]
  % T/C: 150%
L1210; [6]
  % T/C: 145%

## CC(=CC(=O)[O-])C(=O)[O-].NC1CCCCC1N.O.[Pt+2] [Compound 10, Citraconato(trans-R,R-DACH)Pt(II).1H2 O]
[1]
  ID50: 5.00 mg/L
L1210; [5]
  % T/C: 200%

## CCN(CC(=O)[O-])CC(=O)[O-].N[C@@H]1CCCC[C@H]1N.O.[Pt+2] (stereo in doubt) [Compound 1, N-ethyliminodiacetato(trans-R,R-DACH)Pt(II).H2 O]
[1]
  ID50: 0.73 mg/L
L1210/cisplatin
  % T/C (mean survival time treated/control × 100): 324%
L1210/cisplatin; opt. dose 12.5 mg/kg i.p.
  % T/C: 324%
[2]
  LD50: 58 mg/kg
L1210; 3.15 mg/kg i.p., days 1-9
  Long-term Survivors: 4/6
L1210; 12.5 mg/kg i.p., days 1,5,9
  Long-term Survivors: 1/6
L1210; optimal dose 3.15 mg/kg i.p., days 1-9
  % T/C: 434%
L1210; [7]
  % T/C: 324%
L1210; [6]
  % T/C: 125%
[3]
  Survivors on d.5: 5/5
  Body Weight d.5 (% of day 0): 105 % of day 0
  WBC d.5: 2.3 ± 0.93

## CCN1CC(=O)[O][Pt]2([NH]C3CCCCC3[NH]2)[O]C(=O)C1 (stereo not drawn) [Cis-EIDA]
L1210/cisplatin; opt. dose 75 mg/kg i.p.
  % T/C: 262%
[2]
  LD50: 140 mg/kg
[3]
  Survivors on d.5: 3/5
  Body Weight d.5 (% of day 0): 77 % of day 0
  WBC d.5: 3.25 ± 1.01

## CCCCCN(CC(=O)[O-])CC(=O)[O-].N[C@@H]1CCCC[C@H]1N.O.[Pt+2] [Compound 4, N-amyliminodiacetato(trans-R,R-DACH)Pt(II).H2 O]
[1]
  ID50: 3.00 mg/L
L1210; 25 mg/kg i.p., days 1,5,9
  Long-term Survivors: 2/6
L1210; [5]
  % T/C: 227%
L1210; [6]
  % T/C: 158%

## 1,1-Cyclobutanedicarboxylato(trans-R,R-DACH)Pt(II).1 1/2H2 O [Compound 11]
L1210/cisplatin
  % T/C (mean survival time treated/control × 100): 118%
L1210/cisplatin; opt. dose 150 mg/kg i.p.
  % T/C: 118%
[2]
  LD50: 280 mg/kg
L1210; 6.25 mg/kg i.p., days 1-9
  Long-term Survivors: 3/6
L1210; optimal dose 6.25 mg/kg i.p., days 1-9
  % T/C: 398%
L1210; [7]
  % T/C: 140%
L1210; [6]
  % T/C: 147%
B16 melanoma
  % T/C (mean survival time treated/control x 100): 104%
B16 melanoma; opt. dose 50 mg/kg i.p.
  % T/C: 104%
M5076
  long term survivor: one
  % T/C (treated/control mean survival time): 220%
M5076; opt. dose 50 mg/kg i.p.
  % T/C: 220%
  LTS: 1/5
[3]
  Survivors on d.5: 5/5
  Body Weight d.5 (% of day 0): 121 % of day 0
  WBC d.5: 3.44 ± 1.55
